Test results published in publication PMC11530689, “Anti colorectal cancer activity and in silico studies of novel pyridine nortopsentin analog as cyclin dependent kinase 6 inhibitor” (Scientific Reports, 2024).

Legend:
CDK6 gene expression = test: Gene expression by quantitative real-time PCR, CDK6; type: cell-based, human; settings: IC50 dose, 48 h, normalized to GAPDH, vs control
Method: (§1) The cells were seeded in a six-well plate at a concentration of 3 × 10^5 cells/well. After a 24 h incubation, the IC50 dose of active compound 4i was applied to each well for 48 h. The cells were collected and centrifuged at 2500 rpm for 15 min at 4 °C. The total RNA isolation kit (RNeasy extraction kit—QIAGEN) was used to isolate RNA according to the manufacturer’s instructions.
(§2) Gene expression analysis by quantitative real-time PCR. The levels of gene expression of CDK2, CDK4 and CDK6 were determined using iScript One-Step RT-PCR kit with SYBR Green (BIORAD) according to the manufacturer protocol. The sequences of the used primers are illustrated in Table 4. The genes expression was normalized to GAPDH as the housekeeping gene. The protocol used for cDNA synthesis was: 10 min at 50 °C, iScript Reverse transcriptase inactivation: 5 min at 95 °C and PCR cycling and detection (30 to 45 cycles): 10 s at 95 °C and 30 s at 55 °C to 60 °C.

HCT-116 = test: NCI 60 cell line screen; type: cell-based, human; settings: HCT-116, Colon Cancer; single concentration 10^−5 M
Method: The cytotoxic activity of nortopsintin analogs (4a-4j) was determined by the national cancer institute (NCI, Bethesda, Maryland, USA) against 60 different cancer cell lines at a single concentration of (10^-5 M). For the determination of IC50 value, we used MTT assay kit (Sigma) according to the manufacturer's protocol. HCT-116 cells were seeded into a 96-well plate at a concentration of 20,000 cells/well. After 24 h, the media was aspirated and replaced with serum-free media containing serial dilutions of the 4i compound. […] The percentage of cytotoxicity was calculated using the following equation: % Cytotoxicity = [1 - ([…])] × 100.

U251 = test: NCI 60 cell line screen; type: cell-based; settings: U251, CNS Cancer; single concentration 10^−5 M
Method in brief: (§3)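 Cytotoxicity was determined at 10^-5 M in the NCI sixty-cell-line program; each line received that single concentration.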

786-0 = test: NCI 60 cell line screen; type: cell-based; settings: 786-0, Renal Cancer; single concentration 10^−5 M
Method in brief: as §3

MDA-MB-231/ATCC = test: NCI 60 cell line screen; type: cell-based; settings: Breast Cancer, single concentration 10^−5 M
Method in brief: as §3

SK-MEL-2 = test: NCI 60 cell line screen; type: cell-based; settings: SK-MEL-2, Melanoma; single concentration 10^−5 M
Method in brief: as §3

MDA-MB-435 = test: NCI 60 cell line screen; type: cell-based; settings: MDA-MB-435, Melanoma; single concentration 10^−5 M
Method in brief: as §3

RXF 393 = test: NCI 60 cell line screen; type: cell-based; settings: RXF 393, Renal Cancer; single concentration 10^−5 M
Method in brief: as §3

MDA-MB-468 = test: NCI 60 cell line screen; type: cell-based; settings: MDA-MB-468, Breast Cancer; single concentration 10^−5 M
Method in brief: as §3

SK-MEL-5 = test: NCI 60 cell line screen; type: cell-based; settings: SK-MEL-5, Melanoma; single concentration 10^−5 M
Method in brief: as §3

RPMI-8226 = test: NCI 60 cell line screen; type: cell-based; settings: RPMI-8226, Leukemia; single concentration 10^−5 M
Method in brief: as §3

SF-268 = test: NCI 60 cell line screen; type: cell-based; settings: SF-268, CNS Cancer; single concentration 10^−5 M
Method in brief: as §3

K-562 = test: NCI 60 cell line screen; type: cell-based; settings: K-562, Leukemia; single concentration 10^−5 M
Method in brief: as §3

HL-60 (TB) = test: NCI 60 cell line screen; type: cell-based; settings: Leukemia, single concentration 10^−5 M
Method in brief: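 Readout is cytotoxic activity at one fixed dose (10^-5 M), measured by NCI within its 60-line tumour panel.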

SF-295 = test: NCI 60 cell line screen; type: cell-based; settings: SF-295, CNS Cancer; single concentration 10^−5 M
Method in brief: as §3

OVCAR-8 = test: NCI 60 cell line screen; type: cell-based; settings: OVCAR-8, Ovarian Cancer; single concentration 10^−5 M
Method in brief: as §3

HT29 = test: NCI 60 cell line screen; type: cell-based; settings: HT29, Colon Cancer; single concentration 10^−5 M
Method in brief: as §3

MOLT-4 = test: NCI 60 cell line screen; type: cell-based; settings: MOLT-4, Leukemia; single concentration 10^−5 M
Method in brief: as §3

NCI-H322M = test: NCI 60 cell line screen; type: cell-based; settings: Non-Small Cell Lung Cancer, single concentration 10^−5 M
Method in brief: as §3

HOP-62 = test: NCI 60 cell line screen; type: cell-based; settings: HOP-62, Non-Small Cell Lung Cancer; single concentration 10^−5 M
Method in brief: as §3

SF-539 = test: NCI 60 cell line screen; type: cell-based; settings: SF-539, CNS Cancer; single concentration 10^−5 M
Method in brief: as §3

A549/ATCC = test: NCI 60 cell line screen; type: cell-based; settings: Non-Small Cell Lung Cancer, single concentration 10^−5 M
Method in brief: as §3

SK-OV-3 = test: NCI 60 cell line screen; type: cell-based; settings: SK-OV-3, Ovarian Cancer; single concentration 10^−5 M
Method in brief: as §3

CDK2 gene expression = test: Gene expression by quantitative real-time PCR, CDK2; type: cell-based, human; settings: IC50 dose, 48 h, normalized to GAPDH, vs control
Method: as §1, §2

Which results are given for `CN(C)c1ccc(-c2cc(-c3c[nH]c4ccccc34)nc(-c3c[nH]c4ccccc34)c2C#N)cc1` [4i]?
Relative gene expression of CDK6 (CDK6 gene expression): significantly suppress the expression; Growth % (HCT-116): 57.78%; Growth % (U251): 92.50%; Growth % (786-0): 99.08%; Growth % (MDA-MB-231/ATCC): 99.81%; Growth % (SK-MEL-2): 102.08%; Growth % (MDA-MB-435): 81.62%; Growth % (RXF 393): 106.90%; Growth % (MDA-MB-468): 81.79%; Growth % (SK-MEL-5): 96.50%; Growth % (RPMI-8226): 69.39%; Growth % (SF-268): 96.47%; Growth % (K-562): 39.74%; Growth % (HL-60 (TB)): 85.35%; Growth % (SF-295): 79.83%; Growth % (OVCAR-8): 96.39%; Growth % (HT29): 63.02%; Growth % (MOLT-4): 98.39%; Growth % (NCI-H322M): 92.92%; Growth % (HOP-62): 82.30%; Growth % (SF-539): 75.80%; Growth % (A549/ATCC): 89.56%; Growth % (SK-OV-3): 94.88%; Relative gene expression of CDK2 (CDK2 gene expression): significantly suppress the expression
